Reference: ChEMBL document CHEMBL1201862, “PubChem BioAssay data set” (2004)
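These data come from cells grown in 96-well plates and exposed to compound for 48 hours at five concentrations. At the GI50, growth is halved.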 Calls of active or inactive are those of the source. Cut-off read from the data, not from the text of the source: active = GI50 up to about 1.1 µM and inactive = higher.

Assays:
Experiment in all cases: DTP human tumour cell line panel, 48 h
786-0 = system: 786-0
A498 = system: A498
A549 = system: A549
ACHN = system: ACHN
BT-549 = system: BT-549
CAKI-1 = system: CAKI-1
COLO 205 = system: COLO 205
EKVX = system: EKVX
HCT-116 = system: HCT-116
HCT-15 = system: HCT-15
HOP-62 = system: HOP-62
HOP-92 = system: HOP-92
HT-29 = system: HT-29
Hs-578T = system: Hs-578T
IGROV-1 = system: IGROV-1
K562 = system: K562
KM12 = system: KM12
LOX IMVI = system: LOX IMVI
M14 = system: M14
MCF7 = system: MCF7
MDA-MB-231 = system: MDA-MB-231
MDA-MB-435 = system: MDA-MB-435
MDA-N = system: MDA-N
Malme-3M = system: Malme-3M
NCI-H226 = system: NCI-H226
NCI-H23 = system: NCI-H23
NCI-H460 = system: NCI-H460
NCI-H522 = system: NCI-H522
NCI/ADR-RES = system: NCI/ADR-RES
OVCAR-3 = system: OVCAR-3
OVCAR-4 = system: OVCAR-4
OVCAR-5 = system: OVCAR-5
OVCAR-8 = system: OVCAR-8
PC-3 = system: PC-3
RPMI-8226 = system: RPMI-8226
RXF 393 = system: RXF 393
SF-268 = system: SF-268
SF-295 = system: SF-295
SF-539 = system: SF-539
SK-MEL-28 = system: SK-MEL-28
SK-MEL-2 = system: SK-MEL-2
SK-MEL-5 = system: SK-MEL-5
SK-OV-3 = system: SK-OV-3
SN12C = system: SN12C
SNB-19 = system: SNB-19
SNB-75 = system: SNB-75
SW-620 = system: SW-620
T47D = system: T47D
TK-10 = system: TK-10
U-251 = system: U-251
UACC-257 = system: UACC-257
UACC-62 = system: UACC-62
UO-31 = system: UO-31
CCRF-CEM = system: CCRF-CEM
DU-145 = system: DU-145
HCC 2998 = system: HCC 2998
HL-60 = system: HL-60
MOLT-4 = system: MOLT-4
SR = system: SR

Measured: GI50

CC(C)(CO)N1CCN(C(S)=Nc2ccccc2)CC1
inactive: 786-0 > 100 µM | A498 > 100 µM | A549 > 100 µM | ACHN > 100 µM | BT-549 > 100 µM | CAKI-1 > 100 µM | COLO 205 > 100 µM | EKVX > 100 µM | HCT-116 > 100 µM | HOP-62 > 100 µM | HOP-92 > 100 µM | HT-29 > 100 µM | Hs-578T > 100 µM | IGROV-1 > 100 µM | K562 64.3 µM | KM12 > 100 µM | LOX IMVI > 100 µM | M14 > 100 µM | MCF7 > 100 µM | MDA-MB-231 > 100 µM | MDA-MB-435 > 100 µM | MDA-N > 100 µM | Malme-3M > 100 µM | NCI-H226 > 100 µM | NCI-H23 > 100 µM | NCI-H460 > 100 µM | NCI-H522 > 100 µM | NCI/ADR-RES > 100 µM | OVCAR-3 > 100 µM | OVCAR-4 > 100 µM | OVCAR-5 > 100 µM | OVCAR-8 > 100 µM | PC-3 > 100 µM | RPMI-8226 > 100 µM | RXF 393 > 100 µM | SF-268 > 100 µM | SF-295 > 100 µM | SF-539 > 100 µM | SK-MEL-28 > 100 µM | SK-MEL-2 > 100 µM | SK-MEL-5 > 100 µM | SK-OV-3 > 100 µM | SN12C > 100 µM | SNB-19 > 100 µM | SNB-75 > 100 µM | SW-620 > 100 µM | T47D > 100 µM | TK-10 > 100 µM | U-251 > 100 µM | UACC-257 > 100 µM | UACC-62 > 100 µM | UO-31 > 100 µM
> 100 µM: HCT-15

COc1ccccc1NC(=O)CC(=O)N1N=C(N2c3ccccc3Sc3ccccc32)CC1c1ccccc1 (centres undefined)
> 100 µM: HCT-15
inactive: 786-0 > 100 µM | A498 > 100 µM | A549 > 100 µM | ACHN > 100 µM | BT-549 > 100 µM | CAKI-1 > 100 µM | CCRF-CEM > 100 µM | COLO 205 > 100 µM | DU-145 > 100 µM | EKVX > 100 µM | HCC 2998 > 100 µM | HCT-116 > 100 µM | HL-60 > 100 µM | HOP-62 > 100 µM | HOP-92 > 100 µM | HT-29 > 100 µM | Hs-578T > 100 µM | IGROV-1 > 100 µM | K562 > 100 µM | KM12 > 100 µM | M14 > 100 µM | MCF7 > 100 µM | MDA-MB-231 > 100 µM | MDA-MB-435 > 100 µM | MOLT-4 > 100 µM | NCI-H226 > 100 µM | NCI-H23 > 100 µM | NCI-H460 > 100 µM | NCI-H522 > 100 µM | NCI/ADR-RES > 100 µM | OVCAR-3 > 100 µM | OVCAR-4 > 100 µM | OVCAR-5 > 100 µM | OVCAR-8 > 100 µM | PC-3 > 100 µM | RPMI-8226 > 100 µM | RXF 393 > 100 µM | SF-268 > 100 µM | SF-295 > 100 µM | SF-539 > 100 µM | SK-MEL-28 > 100 µM | SK-MEL-2 > 100 µM | SK-MEL-5 > 100 µM | SK-OV-3 > 100 µM | SN12C > 100 µM | SNB-19 > 100 µM | SNB-75 > 100 µM | SR > 100 µM | SW-620 > 100 µM | T47D > 100 µM | TK-10 > 100 µM | U-251 > 100 µM | UACC-257 > 100 µM | UACC-62 > 100 µM | UO-31 > 100 µM
